Measurements from patent US12037612B2, “High throughput reaction assembly” (priority 2018, dated 2024).

Tests used:
[1] = system: reverse transcriptase (Luna RT); experiment: cDNA synthesis with dye in the cDNA reaction, read out by qPCR (GAPDH); format: biochemical; settings: increasing dye in the cDNA reaction, final concentration 0.004%, 0.008%, 0.012%, 0.016%, 0.023%; Jurkat total RNA template
Procedure: 5-log dilutions of Jurkat total RNA (1 ug, 100 ng, 10 ng, 1 ng, 100 pg) were used as the template RNA for cDNA synthesis using Luna RT in the presence of xylene cyanol at a final concentration of 0%, 0.004%, 0.008%, 0.012%, 0.016%, or 0.023%, or Xylene cyanol and tartrazine both in the concentration range described above. […] 10 minutes, and 95° C. 1 minute. 1 ul cDNA library was added to a qPCR reaction mixture containing Taq polymerase and specific primers were added to detect GAPDH.

Taq polymerase = target: T1, Taq polymerase (Thermus aquaticus, UniProt P19821); experiment: qPCR (GAPDH detection) with dye added directly into the qPCR reaction; format: biochemical; settings: increasing dye in the qPCR reaction, final concentration 0.004%, 0.008%, 0.012%, 0.016%, 0.023%; Jurkat total RNA template
T1 construct: purchased New England Biolabs, Ipswich, MA
T1 sequence (P19821 whole entry): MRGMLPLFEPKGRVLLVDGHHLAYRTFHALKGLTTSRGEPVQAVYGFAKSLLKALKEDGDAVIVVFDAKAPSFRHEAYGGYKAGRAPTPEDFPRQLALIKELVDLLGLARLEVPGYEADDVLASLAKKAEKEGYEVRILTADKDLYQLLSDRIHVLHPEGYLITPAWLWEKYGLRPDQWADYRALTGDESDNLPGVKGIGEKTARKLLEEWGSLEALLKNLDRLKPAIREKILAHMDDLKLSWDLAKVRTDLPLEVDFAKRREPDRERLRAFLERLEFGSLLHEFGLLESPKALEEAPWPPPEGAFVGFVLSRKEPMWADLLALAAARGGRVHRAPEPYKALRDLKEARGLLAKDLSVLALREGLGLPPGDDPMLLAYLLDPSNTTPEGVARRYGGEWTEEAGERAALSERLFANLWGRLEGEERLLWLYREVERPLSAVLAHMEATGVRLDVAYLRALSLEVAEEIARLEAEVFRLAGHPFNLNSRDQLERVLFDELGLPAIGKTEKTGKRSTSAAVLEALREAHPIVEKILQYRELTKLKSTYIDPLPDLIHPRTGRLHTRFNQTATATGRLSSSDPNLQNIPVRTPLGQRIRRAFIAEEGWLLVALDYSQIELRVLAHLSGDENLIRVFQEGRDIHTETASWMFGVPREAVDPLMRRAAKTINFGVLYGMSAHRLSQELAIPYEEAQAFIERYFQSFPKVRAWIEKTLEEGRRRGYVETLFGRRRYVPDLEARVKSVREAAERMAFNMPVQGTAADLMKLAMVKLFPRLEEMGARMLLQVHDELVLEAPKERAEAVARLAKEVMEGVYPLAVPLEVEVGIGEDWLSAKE
Procedure: Dyes at a concentration of 0.0003% in a qPCR mix were found not to inhibit Taq polymerase in a qPCR mix in a manner that was detrimental to the reaction. 5-log dilutions of Jurkat total RNA (1 ug, 100 ng, 10 ng, 1 ng, 100 pg) were used as the template RNA for cDNA synthesis using a commercially available thermostable reverse transcriptase (Luna RT). […] 10 minutes, and 95° C. 1 minute. 1 ul cDNA library was added to a qPCR reaction mixture containing Taq polymerase (Luna® Universal qPCR Master Mix (New England Biolabs, Ipswich, MA)) and specific primers were added to detect glyceraldehyde 3-phosphate dehydrogenase (GAPDH) in the presence of xylene cyanol at a final concentration of 0%, 0.004%, 0.008%, 0.012%, 0.016%, or 0.023%, or Xylene cyanol and tartrazine both in the concentration range described above.

CCN=C1C=CC(=C(c2ccc(NCC)c(C)c2)c2ccc(S(=O)(=O)[O-])cc2S(=O)(=O)O)C=C1C.[Na+] [xylene cyanol]
Cq value / inhibition of the reverse transcriptase [1]: did not change the Cq value, indicating that no detectable inhibition of the reverse transcriptase occurred | Cq value in qPCR / inhibition of Taq polymerase (Taq polymerase): higher Cq value, indicating stronger inhibition of Taq polymerase
